# Measured values: the supplement of paper PMC10307832
# Tests used:
# Assay in all cases: relative viability (nuclei count vs DMSO), 5 days (fraction); higher = more cells survive
# NCI-H1299 = tested on: NCI-H1299
# Method in brief: (§1)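 Lung cancer cell lines in 1536-well plates were dosed by pin tool the day after seeding, either with one drug alone or with a fixed anchor-drug dose plus five library-drug doses (not always all listed) in √10 steps. After 5 days, cells were fixed and their nuclei stained in one step (final 0.05% Triton X-100, 1% formaldehyde, 1 ug/ml Hoechst), then counted on 4× images. Relative viability is the nuclei count in treated wells divided by that in vehicle wells. Values are medians of duplicate plates.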
# NCI-H596 = tested on: NCI-H596
# Method in brief: as §1
# Calu-6 = tested on: Calu-6
# Method in brief: as §1
# IA-LM = tested on: IA-LM
# Method in brief: as §1
# EBC-1 = tested on: EBC-1
# Method in brief: as §1
# NCI-H1648 = tested on: NCI-H1648
# Method in brief: as §1
# NCI-H1703 = tested on: NCI-H1703
# Method in brief: as §1
# A549 = tested on: A549
# Method in brief: as §1
compound,measurement,setting,value
COc1cc(N2CCC(C(N)=O)CC2)ccc1Nc1nc(N)c(Cl)c(Nc2ccccc2S(=O)(=O)C(C)C)n1 [HG-5-88-01] + O=C(c1cc(Cc2n[nH]c(=O)c3ccccc23)ccc1F)N1CCN(C(=O)C2CC2)CC1 [Olaparib] (partner 8 µM),relative viability,NCI-H1299; first compound 0.04 µM,0.956
same,relative viability,NCI-H1299; first compound 0.1265 µM,0.972
same,relative viability,NCI-H1299; first compound 0.4 µM,0.986
same,relative viability,NCI-H1299; first compound 1.265 µM,0.951
same,relative viability,NCI-H1299; first compound 4 µM,0.87
same,relative viability,NCI-H596; first compound 0.04 µM,0.729
same,relative viability,NCI-H596; first compound 0.1265 µM,0.734
same,relative viability,NCI-H596; first compound 0.4 µM,0.682
same,relative viability,NCI-H596; first compound 1.265 µM,0.777
same,relative viability,NCI-H596; first compound 4 µM,0.694
same,relative viability,Calu-6; first compound 0.04 µM,0.599
same,relative viability,Calu-6; first compound 0.1265 µM,0.579
same,relative viability,Calu-6; first compound 0.4 µM,0.579
same,relative viability,Calu-6; first compound 1.265 µM,0.537
same,relative viability,Calu-6; first compound 4 µM,0.46
same,relative viability,IA-LM; first compound 0.04 µM,0.79
same,relative viability,IA-LM; first compound 0.1265 µM,0.839
same,relative viability,IA-LM; first compound 0.4 µM,0.87
same,relative viability,IA-LM; first compound 1.265 µM,0.699
same,relative viability,IA-LM; first compound 4 µM,0.649
same,relative viability,EBC-1; first compound 0.04 µM,0.712
same,relative viability,EBC-1; first compound 0.1265 µM,0.77
same,relative viability,EBC-1; first compound 0.4 µM,0.733
same,relative viability,EBC-1; first compound 1.265 µM,0.668
same,relative viability,EBC-1; first compound 4 µM,0.489
same,relative viability,NCI-H1648; first compound 0.04 µM,1.13
same,relative viability,NCI-H1648; first compound 0.1265 µM,0.63
same,relative viability,NCI-H1648; first compound 0.4 µM,0.457
same,relative viability,NCI-H1648; first compound 1.265 µM,0.773
same,relative viability,NCI-H1648; first compound 4 µM,0.462
same,relative viability,NCI-H1703; first compound 0.04 µM,0.341
same,relative viability,NCI-H1703; first compound 0.1265 µM,0.386
same,relative viability,NCI-H1703; first compound 1.265 µM,0.305
same,relative viability,NCI-H1703; first compound 4 µM,0.309
same,relative viability,A549; first compound 0.04 µM,0.357
same,relative viability,A549; first compound 0.1265 µM,0.419
same,relative viability,A549; first compound 0.4 µM,0.352
same,relative viability,A549; first compound 1.265 µM,0.273
same,relative viability,A549; first compound 4 µM,0.25
Clc1ccc(Nc2nnc(Cc3ccncc3)c3ccccc23)cc1 [Vatalanib] + CC1(C)CCC(c2ccc(Cl)cc2)=C(CN2CCN(c3ccc(C(=O)NS(=O)(=O)c4ccc(N[C@H](CCN5CCOCC5)CSc5ccccc5)c(S(=O)(=O)C(F)(F)F)c4)cc3)CC2)C1 [Navitoclax] (partner 0.5 µM),relative viability,NCI-H1299; first compound 0.04 µM,1.04
same,relative viability,NCI-H1299; first compound 0.1265 µM,1.05
same,relative viability,NCI-H1299; first compound 0.4 µM,1.06
same,relative viability,NCI-H1299; first compound 1.265 µM,1.04
same,relative viability,NCI-H1299; first compound 4 µM,1.06
same,relative viability,NCI-H596; first compound 0.04 µM,0.972
same,relative viability,NCI-H596; first compound 0.1265 µM,1
same,relative viability,NCI-H596; first compound 0.4 µM,1.08
same,relative viability,NCI-H596; first compound 1.265 µM,0.767
same,relative viability,NCI-H596; first compound 4 µM,0.986
same,relative viability,Calu-6; first compound 0.04 µM,0.919
same,relative viability,Calu-6; first compound 0.1265 µM,0.756
same,relative viability,Calu-6; first compound 0.4 µM,0.913
same,relative viability,Calu-6; first compound 1.265 µM,0.788
same,relative viability,Calu-6; first compound 4 µM,0.757
same,relative viability,IA-LM; first compound 0.04 µM,0.869
same,relative viability,IA-LM; first compound 0.1265 µM,0.701
same,relative viability,IA-LM; first compound 0.4 µM,0.686
same,relative viability,IA-LM; first compound 1.265 µM,0.746
same,relative viability,IA-LM; first compound 4 µM,0.737
same,relative viability,EBC-1; first compound 0.04 µM,0.382
same,relative viability,EBC-1; first compound 0.1265 µM,0.396
same,relative viability,EBC-1; first compound 0.4 µM,0.46
same,relative viability,EBC-1; first compound 1.265 µM,0.368
same,relative viability,EBC-1; first compound 4 µM,0.328
same,relative viability,NCI-H1703; first compound 0.04 µM,0.994
same,relative viability,NCI-H1703; first compound 0.4 µM,1.71
same,relative viability,NCI-H1703; first compound 1.265 µM,0.643
same,relative viability,NCI-H1703; first compound 4 µM,0.301
same,relative viability,A549; first compound 0.04 µM,1.21
same,relative viability,A549; first compound 0.1265 µM,1.33
same,relative viability,A549; first compound 0.4 µM,1.31
same,relative viability,A549; first compound 1.265 µM,1.16
same,relative viability,A549; first compound 4 µM,1.06
CC(C)Oc1cc(Nc2nc(N[C@@H](C)c3ccc(F)cn3)ncc2Cl)n[nH]1 [AZ23] + Cc1nc(NC(=O)N2CCC[C@H]2C(N)=O)sc1-c1ccnc(C(C)(C)C(F)(F)F)c1 [Alpelisib] (partner 2 µM),relative viability,NCI-H1299; first compound 0.01 µM,1.16
same,relative viability,NCI-H1299; first compound 0.03162 µM,1.09
same,relative viability,NCI-H1299; first compound 0.3162 µM,1.23
same,relative viability,NCI-H596; first compound 0.01 µM,0.51
same,relative viability,NCI-H596; first compound 0.03162 µM,0.528
same,relative viability,NCI-H596; first compound 0.3162 µM,0.418
same,relative viability,Calu-6; first compound 0.03162 µM,1.12
same,relative viability,Calu-6; first compound 0.3162 µM,1.11
same,relative viability,IA-LM; first compound 0.01 µM,0.729
same,relative viability,IA-LM; first compound 0.03162 µM,0.98
same,relative viability,IA-LM; first compound 0.3162 µM,0.943
same,relative viability,EBC-1; first compound 0.01 µM,0.826
same,relative viability,EBC-1; first compound 0.03162 µM,0.869
same,relative viability,EBC-1; first compound 0.3162 µM,0.859
same,relative viability,NCI-H1703; first compound 0.03162 µM,0.434
same,relative viability,NCI-H1703; first compound 0.3162 µM,0.308
same,relative viability,A549; first compound 0.01 µM,0.738
same,relative viability,A549; first compound 0.03162 µM,0.758
same,relative viability,A549; first compound 0.3162 µM,0.716
